Results as given in doi:10.1101/390401v1, “Flux balance analysis predicts NADP phosphatase and NADH kinase are critical to balancing redox during xylose fermentation in Scheffersomyces stipitis” (biorxiv, 2018).

Biological target: T1, K. phaffii Adh2p (Komagataella pastoris, UniProt A0A1B2JBQ8)
T1 construct: gene ADH2; purified natively from wild-type K. phaffii; 40 kDa band
T1 sequence (A0A1B2JBQ8 1-350): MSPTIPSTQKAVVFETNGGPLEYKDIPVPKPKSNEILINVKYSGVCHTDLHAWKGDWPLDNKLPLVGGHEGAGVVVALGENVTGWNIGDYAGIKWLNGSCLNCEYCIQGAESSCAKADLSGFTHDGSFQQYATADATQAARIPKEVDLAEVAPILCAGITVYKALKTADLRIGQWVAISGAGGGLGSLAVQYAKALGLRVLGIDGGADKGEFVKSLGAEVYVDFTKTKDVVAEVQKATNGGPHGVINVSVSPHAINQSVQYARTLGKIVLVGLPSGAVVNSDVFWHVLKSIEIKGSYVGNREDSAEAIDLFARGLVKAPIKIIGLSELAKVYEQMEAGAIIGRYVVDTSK
Test: NADH and NADPH oxidation at […] nm
Type: biochemical
Conditions: 0.01-10 mM butyraldehyde, NADH or NADPH, 1 mM ZnCl2, 50 mM HEPES pH 7.5, 30 C

Row | SMILES | NADH and NADPH oxidation at 340 nm
1 | CCCC=O [butyraldehyde] | Both NADH and NADPH reduced butyraldehyde
2 | NC(=O)C1=CN([C@@H]2O[C@H](COP(=O)(O)OP(=O)(O)OC[C@H]3O[C@@H](n4cnc5c(N)ncnc54)[C@H](O)[C@@H]3O)[C@@H](O)[C@H]2O)C=CC1 [NADH] | Both NADH and NADPH reduced butyraldehyde
